Reference: PubChem BioAssay AID1919000 (Molecular Pharmacology Branch, DTP, NCI, 2023)
Where “and” joins values, the source holds several entries; their conditions need not be identical. Identical values can stand only once. Each block holds one molecule with its values, some of them ahead of it.

Tested on: 653999-131-R-J2-PDC complex spheroids, growth % test/control
Experiment: Anticancer human tumor 653999-131-R-J2-PDC patient-derived lung adenocarcinoma cell line growth inhibition [AhR]
Settings: for viability, T/C: stronger effect = lower value
Summary of the method: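 Agents were dosed in half-log steps down from roughly clinical Cmax, or from 10 microM where Cmax was unknown, alone and with AhR antagonists. Read-out: percent test/control growth of tumor spheroids containing HUVEC and MSC stromal cells.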

[1] = curve of first compound, second compound 0.1 µM
[2] = curve of first compound, second compound 0.316 µM
[3] = curve of first compound, second compound 1 µM
[4] = curve of first compound, second compound 3.16 µM
[5] = curve of first compound, second compound 10 µM
[6] = second compound 0.1 µM, first compound 0.0316 µM
[7] = second compound 0.1 µM, first compound 0.1 µM
[8] = second compound 0.1 µM, first compound 0.316 µM
[9] = second compound 0.1 µM, first compound 1 µM
[10] = second compound 0.1 µM, first compound 3.16 µM
[11] = second compound 0.1 µM, first compound 10 µM
[12] = second compound 0.316 µM, first compound 0.0316 µM
[13] = second compound 0.316 µM, first compound 0.1 µM
[14] = second compound 0.316 µM, first compound 0.316 µM
[15] = second compound 0.316 µM, first compound 1 µM
[16] = second compound 0.316 µM, first compound 3.16 µM
[17] = second compound 0.316 µM, first compound 10 µM
[18] = second compound 1 µM, first compound 0.0316 µM
[19] = second compound 1 µM, first compound 0.1 µM
[20] = second compound 1 µM, first compound 0.316 µM
[21] = second compound 1 µM, first compound 1 µM
[22] = second compound 1 µM, first compound 3.16 µM
[23] = second compound 1 µM, first compound 10 µM
[24] = second compound 3.16 µM, first compound 0.0316 µM
[25] = second compound 3.16 µM, first compound 0.1 µM
[26] = second compound 3.16 µM, first compound 0.316 µM
[27] = second compound 3.16 µM, first compound 1 µM
[28] = second compound 3.16 µM, first compound 3.16 µM
[29] = second compound 3.16 µM, first compound 10 µM
[30] = second compound 10 µM, first compound 0.0316 µM
[31] = second compound 10 µM, first compound 0.1 µM
[32] = second compound 10 µM, first compound 0.316 µM
[33] = second compound 10 µM, first compound 1 µM
[34] = second compound 10 µM, first compound 3.16 µM
[35] = second compound 10 µM, first compound 10 µM
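Also: spheroids exposed to agents for seven days.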
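For viability, T/C in this document: 100% = DMSO vehicle control viability.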

- IC50 (curve of compound): 84.8 nM and 51.8 nM and 86.6 nM
Compound: CC[C@@]1(O)C(=O)OCc2c1cc1n(c2=O)Cc2cc3c(CN(C)C)c(O)ccc3nc2-1
- viability, T/C (compound 0.000316 µM): 118% and 95.5% and 101%
- viability, T/C (compound 0.001 µM): 100% and 95.1% and 108%
- viability, T/C (compound 0.00316 µM): 91.8% and 99.8% and 102%
- viability, T/C (compound 0.01 µM): 80.7% and 79.8% and 91.8%
- viability, T/C (compound 0.0316 µM): 69.5% and 61.3% and 63.9%
- viability, T/C (compound 0.1 µM): 44.3% and 36.5% and 48%

- IC50 [1]: 8890 nM
- IC50 [2]: > 10000 nM
- IC50 [3]: > 10000 nM
- IC50 [4]: > 10000 nM
- IC50 [5]: > 10000 nM
Compound: COc1ccc([C@@H](O)c2cc(-c3ncnc4cc(N5CCOCC5)ccc34)c(F)cc2Cl)nn1 + Cc1cncc(-c2nc(NCCc3c[nH]c4ccccc34)c3ncn(C(C)C)c3n2)c1
- viability, T/C [6]: 97.7%
- viability, T/C [7]: 121%
- viability, T/C [8]: 103%
- viability, T/C [9]: 82.4%
- viability, T/C [10]: 72.5%
- viability, T/C [11]: 46.7%
- viability, T/C [12]: 121%
- viability, T/C [13]: 122%
- viability, T/C [14]: 102%
- viability, T/C [15]: 99.9%
- viability, T/C [16]: 73%
- viability, T/C [17]: 54.4%
- viability, T/C [18]: 116%
- viability, T/C [19]: 123%
- viability, T/C [20]: 122%
- viability, T/C [21]: 101%
- viability, T/C [22]: 87.8%
- viability, T/C [23]: 61%
- viability, T/C [24]: 125%
- viability, T/C [25]: 119%
- viability, T/C [26]: 138%
- viability, T/C [27]: 93%
- viability, T/C [28]: 83.3%
- viability, T/C [29]: 60.5%
- viability, T/C [30]: 55.7%
- viability, T/C [31]: 58.9%
- viability, T/C [32]: 66.2%
- viability, T/C [33]: 65.7%
- viability, T/C [34]: 66.3%
- viability, T/C [35]: 55.5%

- IC50 [1]: 211 nM
- IC50 [2]: 222 nM
- IC50 [3]: 378 nM
- IC50 [4]: 554 nM
- IC50 [5]: 166 nM
Compound: Nc1ccn(C2OC(CO)C(O)C2(F)F)c(=O)n1 (centres undefined) + Cc1cncc(-c2nc(NCCc3c[nH]c4ccccc34)c3ncn(C(C)C)c3n2)c1
- viability, T/C [6]: 67.8%
- viability, T/C [7]: 57.9%
- viability, T/C [8]: 45.5%
- viability, T/C [9]: 38.2%
- viability, T/C [10]: 34.4%
- viability, T/C [11]: 33.4%
- viability, T/C [12]: 70.9%
- viability, T/C [13]: 60.1%
- viability, T/C [14]: 45.5%
- viability, T/C [15]: 38.4%
- viability, T/C [16]: 38.5%
- viability, T/C [17]: 35.4%
- viability, T/C [18]: 80.1%
- viability, T/C [19]: 66.8%
- viability, T/C [20]: 50.1%
- viability, T/C [21]: 42.4%
- viability, T/C [22]: 38.5%
- viability, T/C [23]: 33.8%
- viability, T/C [24]: 82.4%
- viability, T/C [25]: 70%
- viability, T/C [26]: 56.5%
- viability, T/C [27]: 43.5%
- viability, T/C [28]: 39.6%
- viability, T/C [29]: 41.9%
- viability, T/C [30]: 61%
- viability, T/C [31]: 55.8%
- viability, T/C [32]: 42.4%
- viability, T/C [33]: 43.4%
- viability, T/C [34]: 33.3%
- viability, T/C [35]: 33.2%

- IC50 (curve of compound): > 10000 nM
Compound: CC1(C)CCC(CN2CCN(c3ccc(C(=O)NS(=O)(=O)c4ccc(NCC5CCOCC5)c([N+](=O)[O-])c4)c(Oc4cnc5[nH]ccc5c4)c3)CC2)=C(c2ccc(Cl)cc2)C1
- viability, T/C (compound 0.0316 µM): 108% (2×) and 103%
- viability, T/C (compound 0.1 µM): 97.3% and 103% and 116%
- viability, T/C (compound 0.316 µM): 98% and 88.8% and 104%
- viability, T/C (compound 1 µM): 105% and 102% and 104%
- viability, T/C (compound 3.16 µM): 106% and 99.7% and 108%
- viability, T/C (compound 10 µM): 85.9% and 58.9% and 74.9%
